In paper PMC10490225, “Genome-Wide Characterization of Soybean Hexokinase Genes Reveals a Positive Role of GmHXK15 in Alkali Stress Response” (Plants, 2023):

System: T1, GmHXK15
T1 construct: CDS in pET32a(+) (NcoI/XhoI), His-tagged fusion, E. coli Rosetta / DE3, Ni-NTA
Experiment: initial velocity, Michaelis-Menten / Eadie-Hofstee
Type: biochemical, Glycine max
Conditions: assay pH, temperature and ATP not stated

Km (varied fructose) | Km (varied glucose) | Structure (SMILES)
1300 µM | – | OCC1(O)OC[C@@H](O)[C@@H](O)[C@@H]1O (some centres unmarked) [fructose]
– | 60 µM | OC[C@H]1OC(O)[C@H](O)[C@@H](O)[C@@H]1O (some centres unmarked) [glucose]
